Data on 39 compounds can be found in patent US10150767B2, “Therapeutic compounds and uses thereof” (priority 2014, dated 2018).

pIC50: −log10 of the molar value.

Chain of CECR2 (Q9BXF3 424-538 limits assumed): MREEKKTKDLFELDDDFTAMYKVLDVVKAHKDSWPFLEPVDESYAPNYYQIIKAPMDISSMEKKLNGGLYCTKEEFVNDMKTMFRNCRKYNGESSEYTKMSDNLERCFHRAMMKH
Chain of BRD9 (Q9H8M2 134-239 limits assumed): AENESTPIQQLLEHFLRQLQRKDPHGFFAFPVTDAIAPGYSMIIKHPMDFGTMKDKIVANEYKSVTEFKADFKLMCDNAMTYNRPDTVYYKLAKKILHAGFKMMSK

One experiment deals with BRD4(BD1) (Homo sapiens (Human), UniProt O60885). Put plainly: BRD4 AlphaLisa binding assay. As to conditions: biotinylated H4-tetraacetyl peptide. An excerpt:
IC50 Measurements for Inhibitors Using BRD4 AlphaLisa Binding Assay
Compound `Cn1cc(-c2cccc(C(N)=O)c2)c2cc[nH]c2c1=O` [Example 21, 3-(6-methyl-7-oxo-1H-pyrrolo[2,3-c]pyridin-4-yl)benzamide] had a pIC50 of 6.74.

Turning to `Cn1cc(-c2ccc3c(c2)N2CCCC2CC(=O)N3)c2cc[nH]c2c1=O` (stereo not drawn) [Example 15, 2-(6-methyl-7-oxo-1H-pyrrolo[2,3-c]pyridin-4-yl)-5,7,7a,8,9,10-hexahydropyrrolo[2,1-d][1,5]benzodiazepin-6-one], the pIC50 was 7.09. The compound `CN(CC#N)C(=O)c1ccc(-c2cn(C)c(=O)c3[nH]ccc23)cc1` [Example 38, N-(cyanomethyl)-N-methyl-4-(6-methyl-7-oxo-1H-pyrrolo[2,3-c]pyridin-4-yl)benzamide] had a negative-log IC50 (pIC50) of 6.70.

Compound `Cn1cc(-c2ccccc2)c2cc[nH]c2c1=O` [Example 1, 6-methyl-4-phenyl-1H-pyrrolo[2,3-c]pyridin-7(6H)-one] had a pIC50 of 6.27. Same read-out and setting: the value for `CC(C)c1nc2cc(-c3cn(C)c(=O)c4[nH]ccc34)ccc2[nH]c1=O` [Example 14, 3-isopropyl-6-(6-methyl-7-oxo-1H-pyrrolo[2,3-c]pyridin-4-yl)-1H-quinoxalin-2-one] was 6.96; that for `CC1Nc2cc(-c3cn(C)c(=O)c4[nH]ccc34)ccc2NC1=O` (stereo not drawn) [Example 10, 3-methyl-6-(6-methyl-7-oxo-1H-pyrrolo[2,3-c]pyridin-4-yl)-3,4-dihydro-1H-quinoxalin-2-one] was 6.96; that for `CN(C(=O)c1ccc(-c2cn(C)c(=O)c3[nH]ccc23)cc1)c1ccccc1` [Example 36, N-methyl-4-(6-methyl-7-oxo-1H-pyrrolo[2,3-c]pyridin-4-yl)-N-phenyl-benzamide] was 6.47.

With `Cn1cc(-c2ccc(C(=O)N3CCC(C(N)=O)CC3)cc2)c2cc[nH]c2c1=O` [Example 33, 1-[4-(6-methyl-7-oxo-1H-pyrrolo[2,3-c]pyridin-4-yl)benzoyl]piperidine-4-carboxamide], the pIC50 is 6.59. Still for that read-out and setting: the value for `CC(=O)N1CCN(C(=O)c2ccc(-c3cn(C)c(=O)c4[nH]ccc34)cc2)CC1` [Example 32, 4-[4-(4-acetylpiperazine-1-carbonyl)phenyl]-6-methyl-1H-pyrrolo[2,3-c]pyridin-7-one] was 6.49; that for `Cn1cc(-c2ccc3c(c2)CCCN3C(=O)OC(C)(C)C)c2cc[nH]c2c1=O` [Example 4, tert-butyl 6-(6-methyl-7-oxo-1H-pyrrolo[2,3-c]pyridin-4-yl)-3,4-dihydro-2H-quinoline-1-carboxylate] was 6.96; that for `Cn1cc(-c2ccc3c(c2)NC(c2cccs2)CC(=O)N3)c2cc[nH]c2c1=O` (stereo not drawn) [Example 17, 7-(6-methyl-7-oxo-1H-pyrrolo[2,3-c]pyridin-4-yl)-4-(2-thienyl)-1,3,4,5-tetrahydro-1,5-benzodiazepin-2-one] was 7.24. For `CC1CC(=O)Nc2ccc(-c3cn(C)c(=O)c4[nH]ccc34)cc2N1` (stereo not drawn) [Example 13, 4-methyl-7-(6-methyl-7-oxo-1H-pyrrolo[2,3-c]pyridin-4-yl)-1,3,4,5-tetrahydro-1,5-benzodiazepin-2-one], the pIC50 is 6.77. Same read-out and setting: the value for `Cn1cc(-c2ccc(C(=O)Nc3cccnc3)cc2)c2cc[nH]c2c1=O` [Example 34, 4-(6-methyl-7-oxo-1H-pyrrolo[2,3-c]pyridin-4-yl)-N-(3-pyridyl)benzamide] was 7.29; that for `Cn1cc(-c2ccc3c(c2)N2C(=O)CCC2C(=O)N3)c2cc[nH]c2c1=O` (stereo not drawn) [Example 9, 8-(6-methyl-7-oxo-6,7-dihydro-1H-pyrrolo[2,3-c]pyridin-4-yl)-3,3a-dihydropyrrolo[1,2-a]quinoxaline-1,4(2H,5H)-dione] was 6.51. Take `Cn1cc(-c2ccc(CO)cc2)c2cc[nH]c2c1=O` [Example 25, 4-[4-(hydroxymethyl)phenyl]-6-methyl-1H-pyrrolo[2,3-c]pyridin-7-one]: the pIC50 is 6.15. The same measure, in the same setting: the value for `Cn1cc(-c2cccc(C#N)c2)c2cc[nH]c2c1=O` [Example 23, 3-(6-methyl-7-oxo-1H-pyrrolo[2,3-c]pyridin-4-yl)benzonitrile] was 6.82; that for `CC1CCN(C(=O)c2ccc(-c3cn(C)c(=O)c4[nH]ccc34)cc2)CC1` [Example 31, 6-methyl-4-[4-(4-methylpiperidine-1-carbonyl)phenyl]-1H-pyrrolo[2,3-c]pyridin-7-one] was 6.77; that for `Cn1cc(-c2ccc3c(c2)CC(=O)N3)c2cc[nH]c2c1=O` [Example 2, 6-methyl-4-(2-oxoindolin-5-yl)-1H-pyrrolo[2,3-c]pyridin-7-one] was 6.68.

The compound `Cn1cc(-c2ccc(C(=O)N3CC(F)C3)cc2)c2cc[nH]c2c1=O` [Example 27, 4-[4-(3-fluoroazetidine-1-carbonyl)phenyl]-6-methyl-1H-pyrrolo[2,3-c]pyridin-7-one] showed a pIC50 of 7.08. Same read-out and setting: in the case of `Cn1cc(-c2ccc(C(=O)N3CCCC3)cc2)c2cc[nH]c2c1=O` [Example 29, 6-methyl-4-[4-(pyrrolidine-1-carbonyl)phenyl]-1H-pyrrolo[2,3-c]pyridin-7-one] it was 6.55.

The target of a further experiment is BRD9 (Homo sapiens (Human), UniProt Q9H8M2). Put plainly: BRD9 AlphaLisa binding assay. Conditions: biotinylated H4-tetraacetyl peptide. As for the experimental part:
After 20 minutes incubation at room temperature AlphaLisa Streptavidin Acceptor Beads (Perkin-A[…]) and AlphaLisa Nickel donor beads (Perkin AS 10 ID) were added to a final concentration of 15 ug/mL each.
In turn, `CCCn1cc(-c2cccc(C(=O)N(C)C)c2)c2cc[nH]c2c1=O` [Example 19, N,N-dimethyl-3-(7-oxo-6-propyl-1H-pyrrolo[2,3-c]pyridin-4-yl)benzamide] showed a pIC50 of 6.62.

`CC1CNc2cc(-c3cn(C)c(=O)c4[nH]ccc34)ccc2NC1=O` (stereo not drawn) [Example 11, 3-methyl-7-(6-methyl-7-oxo-1H-pyrrolo[2,3-c]pyridin-4-yl)-1,3,4,5-tetrahydro-1,5-benzodiazepin-2-one]: the pIC50 is 7.51. For `Cn1cc(-c2ccc(C(C)(C)O)cc2)c2cc[nH]c2c1=O` [Example 39, 4-[4-(1-hydroxy-1-methyl-ethyl)phenyl]-6-methyl-1H-pyrrolo[2,3-c]pyridin-7-one], the pIC50 is 7.68. The compound `COCCNC(=O)c1ccc(-c2cn(C)c(=O)c3[nH]ccc23)cc1` [Example 3, N-(2-methoxyethyl)-4-(6-methyl-7-oxo-1H-pyrrolo[2,3-c]pyridin-4-yl)benzamide] gave a pIC50 of 7.62. Compound `CN1CCC(c2ccc(-c3cn(C)c(=O)c4[nH]ccc34)cc2)CC1` [Example 42, 6-methyl-4-[4-(1-methyl-4-piperidyl)phenyl]-1H-pyrrolo[2,3-c]pyridin-7-one] showed a pIC50 of 7.28. Against the preceding compound, the pIC50 is 0.34 log units lower. Compound `Cn1cc(-c2ccc3c(c2)NCCC(=O)N3)c2cc[nH]c2c1=O` [Example 12, 7-(6-methyl-7-oxo-1H-pyrrolo[2,3-c]pyridin-4-yl)-1,3,4,5-tetrahydro-1,5-benzodiazepin-2-one] had a pIC50 of 7.60. `Cn1cc(-c2ccc(NC(=O)OC(C)(C)C)cc2)c2cc[nH]c2c1=O` [Example 6, tert-butyl N-[4-(6-methyl-7-oxo-1H-pyrrolo[2,3-c]pyridin-4-yl)phenyl]carbamate] showed a pIC50 of 7.07. This pIC50 is 0.53 log units lower than that of the compound before.

`CN1CCC(Cc2ccc(-c3cn(C)c(=O)c4[nH]ccc34)cc2)CC1` [Example 45, 6-methyl-4-[4-[(1-methyl-4-piperidyl)methyl]phenyl]-1H-pyrrolo[2,3-c]pyridin-7-one] gave a negative-log IC50 (pIC50) of 7.19. `CC(C)(O)c1ccc(-c2cn(C3CC3)c(=O)c3[nH]ccc23)cc1` [Example 41, 6-cyclopropyl-4-(4-(2-hydroxypropan-2-yl)phenyl)-1H-pyrrolo[2,3-c]pyridin-7(6H)-one] gave a pIC50 of 6.96. Compound `Cn1cc(-c2ccc3c(c2)N(C(=O)OC(C)(C)C)CCC3)c2cc[nH]c2c1=O` [Example 5, tert-butyl 7-(6-methyl-7-oxo-1H-pyrrolo[2,3-c]pyridin-4-yl)-3,4-dihydro-2H-quinoline-1-carboxylate] showed a pIC50 of 6.89.

Another experiment addresses CECR2 (Homo sapiens (Human), UniProt Q9BXF3). Put plainly: CECR2 TR-FRET binding assay. As to conditions: biotinylated probe compound 1001, TR-FRET. An excerpt:
IC50 Measurements for Inhibitors Using CECR2 TR-FRET Binding Assay
His/Flag epitope tagged CECR2424-538 was cloned, expressed, and purified to homogeneity.
Compound `CC1Oc2cc(-c3cn(C)c(=O)c4[nH]ccc34)ccc2NC1=O` (stereo not drawn) [Example 16, 2-methyl-7-(6-methyl-7-oxo-1H-pyrrolo[2,3-c]pyridin-4-yl)-4H-1,4-benzoxazin-3-one] showed a negative-log IC50 (pIC50) of 7.44. Turning to `COCCC(=O)Nc1ccc(-c2cn(C)c(=O)c3[nH]ccc23)cc1` [Example 7, 3-methoxy-N-[4-(6-methyl-7-oxo-1H-pyrrolo[2,3-c]pyridin-4-yl)phenyl]propanamide], the negative logarithm of the IC50 (pIC50) is 6.77. The same measure, in the same setting: in the case of `CN(C)C(=O)c1ccc(-c2cn(C)c(=O)c3[nH]ccc23)cc1` [Example 18, N,N-dimethyl-4-(6-methyl-7-oxo-1H-pyrrolo[2,3-c]pyridin-4-yl)benzamide] it was 6.14. On the same count and under the same terms, the value for `Cn1cc(-c2ccc(C(=O)Nc3ccccc3)cc2)c2cc[nH]c2c1=O` [Example 35, 4-(6-methyl-7-oxo-1H-pyrrolo[2,3-c]pyridin-4-yl)-N-phenyl-benzamide] was 7.12; that for `CN1CCc2cc(-c3cn(C)c(=O)c4[nH]ccc34)ccc2C1` [Example 44, 6-methyl-4-(2-methyl-3,4-dihydro-1H-isoquinolin-6-yl)-1H-pyrrolo[2,3-c]pyridin-7-one] was 7.27. `CN1CCN(C(=O)c2ccc(-c3cn(C)c(=O)c4[nH]ccc34)cc2)CC1=O` [Example 26, 6-methyl-4-(4-(4-methyl-3-oxopiperazine-1-carbonyl)phenyl)-1H-pyrrolo[2,3-c]pyridin-7(6H)-one]: the pIC50 was 6.62. For `CCn1cc(-c2cccc(C(=O)N(C)C)c2)c2cc[nH]c2c1=O` [Example 20, 3-(6-ethyl-7-oxo-1H-pyrrolo[2,3-c]pyridin-4-yl)-N,N-dimethyl-benzamide], the pIC50 was 5.89.

Turning to `Cn1cc(-c2ccc(C(=O)N3CC(F)(F)C3)cc2)c2cc[nH]c2c1=O` [Example 28, 4-[4-(3,3-difluoroazetidine-1-carbonyl)phenyl]-6-methyl-1H-pyrrolo[2,3-c]pyridin-7-one], the pIC50 is 6.89. On to `Cc1cc2c(-c3cccc(C(=O)N(C)C)c3)cn(C)c(=O)c2[nH]1` [Example 47, 3-(2,6-dimethyl-7-oxo-1H-pyrrolo[2,3-c]pyridin-4-yl)-N,N-dimethyl-benzamide], for which the pIC50 is 6.89.
